Assay results from ChEMBL document CHEMBL3991601, “The target landscape of clinical kinase drugs” (Science, 2017).
The source made the active and inactive calls.

How the values were obtained:
[1] = molecular target: Cyclin-dependent kinase 7 (Homo sapiens, UniProt P50613)
[2] = molecular target: Mitogen-activated protein kinase 10 (Homo sapiens, UniProt P53779)
[3] = molecular target: T1, Mitogen-activated protein kinase 15 (Homo sapiens, UniProt Q8TD08)
T1 sequence (Q8TD08 whole entry): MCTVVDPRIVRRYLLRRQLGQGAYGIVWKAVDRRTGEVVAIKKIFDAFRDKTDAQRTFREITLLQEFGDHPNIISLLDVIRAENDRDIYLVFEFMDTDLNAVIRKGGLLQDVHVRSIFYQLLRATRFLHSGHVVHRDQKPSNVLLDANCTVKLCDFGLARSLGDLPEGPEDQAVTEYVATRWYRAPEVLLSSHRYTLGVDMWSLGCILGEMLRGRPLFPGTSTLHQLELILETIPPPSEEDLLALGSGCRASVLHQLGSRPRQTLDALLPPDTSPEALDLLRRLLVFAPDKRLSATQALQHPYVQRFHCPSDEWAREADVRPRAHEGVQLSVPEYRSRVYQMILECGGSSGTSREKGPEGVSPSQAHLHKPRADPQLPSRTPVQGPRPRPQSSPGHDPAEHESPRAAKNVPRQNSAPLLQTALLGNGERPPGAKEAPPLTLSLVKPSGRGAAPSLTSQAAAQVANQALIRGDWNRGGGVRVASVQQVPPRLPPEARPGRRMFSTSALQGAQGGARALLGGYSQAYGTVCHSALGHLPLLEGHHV

[4] = molecular target: T2, RNA cytidine acetyltransferase (Homo sapiens, UniProt Q9H0A0)
T2 sequence (Q9H0A0 whole entry): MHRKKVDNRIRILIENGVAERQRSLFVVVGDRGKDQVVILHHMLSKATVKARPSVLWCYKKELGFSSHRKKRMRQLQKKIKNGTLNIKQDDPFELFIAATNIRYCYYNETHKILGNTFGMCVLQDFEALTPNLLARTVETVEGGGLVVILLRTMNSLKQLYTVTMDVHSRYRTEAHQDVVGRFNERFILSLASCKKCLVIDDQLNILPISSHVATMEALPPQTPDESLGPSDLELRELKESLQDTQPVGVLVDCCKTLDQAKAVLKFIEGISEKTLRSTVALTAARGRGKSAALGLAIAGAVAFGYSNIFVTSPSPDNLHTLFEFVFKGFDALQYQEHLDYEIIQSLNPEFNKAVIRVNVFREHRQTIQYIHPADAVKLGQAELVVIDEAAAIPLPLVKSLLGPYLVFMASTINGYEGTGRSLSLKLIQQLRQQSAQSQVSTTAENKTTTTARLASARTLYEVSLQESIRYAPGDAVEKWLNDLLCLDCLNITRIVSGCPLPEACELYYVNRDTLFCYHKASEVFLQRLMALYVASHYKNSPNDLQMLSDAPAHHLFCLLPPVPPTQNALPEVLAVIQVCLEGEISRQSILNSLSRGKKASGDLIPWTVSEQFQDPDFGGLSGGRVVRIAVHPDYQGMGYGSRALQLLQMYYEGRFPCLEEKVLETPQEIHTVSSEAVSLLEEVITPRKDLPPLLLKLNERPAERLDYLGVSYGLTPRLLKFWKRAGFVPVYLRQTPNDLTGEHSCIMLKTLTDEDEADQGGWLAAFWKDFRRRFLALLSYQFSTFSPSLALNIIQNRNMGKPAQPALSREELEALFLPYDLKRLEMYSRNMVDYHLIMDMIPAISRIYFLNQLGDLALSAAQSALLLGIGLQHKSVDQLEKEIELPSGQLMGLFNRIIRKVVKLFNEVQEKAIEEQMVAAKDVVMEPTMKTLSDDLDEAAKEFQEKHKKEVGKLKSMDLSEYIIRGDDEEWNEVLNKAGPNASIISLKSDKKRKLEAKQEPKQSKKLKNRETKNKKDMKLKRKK

[5] = molecular target: T3, Phosphatidylinositol 5-phosphate 4-kinase type-2 alpha (Homo sapiens, UniProt P48426)
T3 sequence (P48426 whole entry): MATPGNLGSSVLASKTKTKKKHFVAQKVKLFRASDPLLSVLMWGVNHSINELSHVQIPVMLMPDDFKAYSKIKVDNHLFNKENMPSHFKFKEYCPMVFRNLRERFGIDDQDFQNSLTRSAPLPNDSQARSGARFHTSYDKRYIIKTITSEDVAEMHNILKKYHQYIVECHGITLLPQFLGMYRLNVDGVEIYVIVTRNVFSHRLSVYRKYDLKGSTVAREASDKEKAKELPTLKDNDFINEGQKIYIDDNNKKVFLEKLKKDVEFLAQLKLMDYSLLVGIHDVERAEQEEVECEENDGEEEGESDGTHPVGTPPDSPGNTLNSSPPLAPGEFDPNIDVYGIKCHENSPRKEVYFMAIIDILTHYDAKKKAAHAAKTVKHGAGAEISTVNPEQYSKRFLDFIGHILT

[6] = molecular target: Ribosomal protein S6 kinase beta-1 (Homo sapiens, UniProt P23443)
[7] = molecular target: Non-receptor tyrosine-protein kinase TYK2 (Homo sapiens, UniProt P29597)
[8] = molecular target: T4, Uncharacterized protein FLJ45252 (Homo sapiens, UniProt Q6ZSR9); settings: read-out: Kd apparent; k-562, colo 205, sk-n-be(2) and mv-4-11
T4 sequence (Q6ZSR9 whole entry): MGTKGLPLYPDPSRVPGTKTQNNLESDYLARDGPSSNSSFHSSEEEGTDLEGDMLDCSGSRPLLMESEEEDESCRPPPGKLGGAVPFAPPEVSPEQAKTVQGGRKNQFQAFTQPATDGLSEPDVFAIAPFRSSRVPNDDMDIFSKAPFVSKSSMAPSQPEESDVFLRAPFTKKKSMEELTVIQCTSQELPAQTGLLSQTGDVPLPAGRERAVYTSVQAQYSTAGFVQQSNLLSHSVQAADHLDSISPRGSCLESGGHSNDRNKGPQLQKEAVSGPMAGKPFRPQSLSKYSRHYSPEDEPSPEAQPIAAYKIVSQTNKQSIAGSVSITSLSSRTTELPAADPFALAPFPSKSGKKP
Also: in the data inactive means no Kd found up to 30 µM.

Non-receptor tyrosine-protein kinase TYK2, sequence (P29597 whole entry): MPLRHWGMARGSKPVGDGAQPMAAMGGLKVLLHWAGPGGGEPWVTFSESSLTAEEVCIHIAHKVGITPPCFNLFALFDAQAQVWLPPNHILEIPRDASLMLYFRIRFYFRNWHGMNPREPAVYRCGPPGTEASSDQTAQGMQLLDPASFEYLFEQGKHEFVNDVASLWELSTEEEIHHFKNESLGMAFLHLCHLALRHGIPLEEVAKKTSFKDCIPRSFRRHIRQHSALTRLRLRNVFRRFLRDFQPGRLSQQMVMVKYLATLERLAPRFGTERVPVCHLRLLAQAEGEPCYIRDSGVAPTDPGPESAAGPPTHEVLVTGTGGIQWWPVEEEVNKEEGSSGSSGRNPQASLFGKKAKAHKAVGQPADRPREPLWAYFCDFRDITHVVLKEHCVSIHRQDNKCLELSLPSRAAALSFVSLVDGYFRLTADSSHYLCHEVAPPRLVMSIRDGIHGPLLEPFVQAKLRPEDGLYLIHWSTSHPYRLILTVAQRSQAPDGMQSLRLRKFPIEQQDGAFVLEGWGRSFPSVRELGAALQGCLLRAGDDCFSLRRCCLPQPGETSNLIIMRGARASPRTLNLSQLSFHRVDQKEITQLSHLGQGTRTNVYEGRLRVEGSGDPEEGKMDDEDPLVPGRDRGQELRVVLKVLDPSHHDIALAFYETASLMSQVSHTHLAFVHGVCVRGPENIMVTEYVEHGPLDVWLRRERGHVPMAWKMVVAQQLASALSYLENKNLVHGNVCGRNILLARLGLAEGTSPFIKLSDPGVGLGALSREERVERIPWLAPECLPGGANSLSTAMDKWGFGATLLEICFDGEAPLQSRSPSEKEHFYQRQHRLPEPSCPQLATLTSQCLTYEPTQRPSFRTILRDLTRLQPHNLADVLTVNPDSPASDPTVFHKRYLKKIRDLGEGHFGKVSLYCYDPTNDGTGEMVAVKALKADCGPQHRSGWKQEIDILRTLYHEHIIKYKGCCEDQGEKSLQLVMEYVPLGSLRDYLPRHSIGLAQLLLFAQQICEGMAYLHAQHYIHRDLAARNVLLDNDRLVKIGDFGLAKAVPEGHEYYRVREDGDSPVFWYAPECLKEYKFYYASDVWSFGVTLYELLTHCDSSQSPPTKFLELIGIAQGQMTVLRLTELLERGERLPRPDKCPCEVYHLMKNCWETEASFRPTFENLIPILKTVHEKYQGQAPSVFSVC
Cyclin-dependent kinase 7, sequence (P50613 whole entry): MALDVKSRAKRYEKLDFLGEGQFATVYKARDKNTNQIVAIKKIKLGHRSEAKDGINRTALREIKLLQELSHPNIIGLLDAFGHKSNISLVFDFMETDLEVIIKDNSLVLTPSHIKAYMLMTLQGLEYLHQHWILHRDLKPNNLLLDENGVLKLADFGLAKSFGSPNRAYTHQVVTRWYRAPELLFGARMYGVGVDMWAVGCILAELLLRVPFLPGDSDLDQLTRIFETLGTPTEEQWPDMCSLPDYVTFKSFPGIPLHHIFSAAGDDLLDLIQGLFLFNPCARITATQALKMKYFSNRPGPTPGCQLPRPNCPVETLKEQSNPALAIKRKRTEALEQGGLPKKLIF
Mitogen-activated protein kinase 10, sequence (P53779 whole entry): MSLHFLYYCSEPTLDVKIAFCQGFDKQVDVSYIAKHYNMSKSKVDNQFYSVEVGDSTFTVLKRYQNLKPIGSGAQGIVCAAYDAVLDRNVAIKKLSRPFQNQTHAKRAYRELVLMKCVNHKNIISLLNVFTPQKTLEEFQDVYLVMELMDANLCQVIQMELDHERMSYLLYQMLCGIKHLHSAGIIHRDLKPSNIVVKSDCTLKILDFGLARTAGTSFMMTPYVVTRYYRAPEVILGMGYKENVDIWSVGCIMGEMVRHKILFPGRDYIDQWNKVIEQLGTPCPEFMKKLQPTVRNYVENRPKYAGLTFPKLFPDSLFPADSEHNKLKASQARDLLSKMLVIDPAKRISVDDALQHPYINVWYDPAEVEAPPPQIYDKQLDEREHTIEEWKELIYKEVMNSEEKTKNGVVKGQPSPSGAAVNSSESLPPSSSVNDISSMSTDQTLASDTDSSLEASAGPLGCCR
Ribosomal protein S6 kinase beta-1, sequence (P23443 whole entry): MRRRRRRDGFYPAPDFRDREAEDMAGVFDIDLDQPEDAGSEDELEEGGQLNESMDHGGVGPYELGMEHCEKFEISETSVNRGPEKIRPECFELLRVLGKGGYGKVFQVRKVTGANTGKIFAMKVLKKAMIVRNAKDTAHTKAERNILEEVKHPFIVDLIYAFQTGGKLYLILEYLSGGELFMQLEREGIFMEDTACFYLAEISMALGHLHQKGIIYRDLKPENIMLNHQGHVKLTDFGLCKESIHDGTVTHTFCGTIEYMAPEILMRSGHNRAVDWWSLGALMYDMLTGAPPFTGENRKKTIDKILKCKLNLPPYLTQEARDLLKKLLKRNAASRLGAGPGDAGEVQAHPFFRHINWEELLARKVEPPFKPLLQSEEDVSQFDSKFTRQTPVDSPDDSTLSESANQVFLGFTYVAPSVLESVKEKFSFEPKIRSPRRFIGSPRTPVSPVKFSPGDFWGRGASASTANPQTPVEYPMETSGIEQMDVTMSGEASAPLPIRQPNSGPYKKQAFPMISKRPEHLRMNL

| Compound | Kd [1] | Kd [2] | Kd [3] | Kd [4] | Kd [5] | Kd [6] | Kd [7] | Kd [8] |
| --- | --- | --- | --- | --- | --- | --- | --- | --- |
| Cn1cc(-c2[nH]c3cc(NC(=O)[C@H](N)C4CCCCC4)cc4c3c2C=NNC4=O)cn1 | > 30 µM (inactive) | > 30 µM (inactive) | > 30 µM (inactive) | > 30 µM (inactive) | > 30 µM (inactive) | 2.38 µM (active) | > 30 µM (inactive) | 0.002 µM (active) |
| CCc1cc2c(cc1N1CCC(N3CCOCC3)CC1)C(C)(C)c1[nH]c3cc(C#N)ccc3c1C2=O [ALECTINIB] | > 30 µM (inactive) | > 30 µM (inactive) | > 30 µM (inactive) | > 30 µM (inactive) | > 30 µM (inactive) | > 30 µM (inactive) | > 30 µM (inactive) | > 30 µM (inactive) |
| COc1ccc2c(OCc3nnc4ccc(-c5ccccc5)nn34)ccnc2c1 [AMG-208] | > 30 µM (inactive) | > 30 µM (inactive) | > 30 µM (inactive) | > 30 µM (inactive) | > 30 µM (inactive) | > 30 µM (inactive) | > 30 µM (inactive) | > 30 µM (inactive) |
| NC[C@@](O)(c1ccc(Cl)cc1)c1ccc(-c2cn[nH]c2)cc1 [AT-13148] | > 30 µM (inactive) | > 30 µM (inactive) | > 30 µM (inactive) | > 30 µM (inactive) | > 30 µM (inactive) | > 30 µM (inactive) | > 30 µM (inactive) | > 30 µM (inactive) |
| Cc1cc(Nc2nc(N[C@@H](C)c3ncc(F)cn3)ncc2Cl)n[nH]1 [AZD-1480] | > 30 µM (inactive) | > 30 µM (inactive) | > 30 µM (inactive) | > 30 µM (inactive) | > 30 µM (inactive) | > 30 µM (inactive) | > 30 µM (inactive) | > 30 µM (inactive) |
| COc1ccc(-c2ccc3ncc4c(c3c2)n(-c2ccc(N3CCNCC3)c(C(F)(F)F)c2)c(=O)n4C)cn1 [BGT-226 FREE BASE] | > 30 µM (inactive) | > 30 µM (inactive) | > 30 µM (inactive) | > 30 µM (inactive) | – | > 30 µM (inactive) | > 30 µM (inactive) | > 30 µM (inactive) |
| COc1cccc(Nc2ncnn3ccc(CN4CC[C@@H](N)[C@H](O)C4)c23)c1 [BMS-690514] | > 30 µM (inactive) | > 30 µM (inactive) | > 30 µM (inactive) | > 30 µM (inactive) | > 30 µM (inactive) | > 30 µM (inactive) | > 30 µM (inactive) | – |
| CC[C@@](C)(Nc1ccnc(-c2c[nH]c3ncccc23)n1)C(=O)NCC(F)(F)F [DECERNOTINIB] | > 30 µM (inactive) | > 30 µM (inactive) | > 30 µM (inactive) | > 30 µM (inactive) | > 30 µM (inactive) | > 30 µM (inactive) | – | 2.64 µM (active) |
| C#Cc1cccc(Nc2ncnc3cc4c(cc23)OCCOCCOCCO4)c1 [ICOTINIB] | > 30 µM (inactive) | > 30 µM (inactive) | > 30 µM (inactive) | > 30 µM (inactive) | – | > 30 µM (inactive) | > 30 µM (inactive) | > 30 µM (inactive) |
| C=CC(=O)Nc1cc(Nc2nccc(-c3cn(C)c4ccccc34)n2)c(OC)cc1N(C)CCN(C)C [OSIMERTINIB] | > 30 µM (inactive) | > 30 µM (inactive) | > 30 µM (inactive) | > 30 µM (inactive) | > 30 µM (inactive) | > 30 µM (inactive) | > 30 µM (inactive) | – |
| FC(F)(F)c1ccc(CNc2ccc(Cc3c[nH]c4ncc(Cl)cc34)cn2)cn1 [PEXIDARTINIB] | > 30 µM (inactive) | > 30 µM (inactive) | > 30 µM (inactive) | > 30 µM (inactive) | > 30 µM (inactive) | > 30 µM (inactive) | > 30 µM (inactive) | – |
| CC(C)CC(=O)Nc1[nH]nc2c1CN(C(=O)C1CCN(C)CC1)C2(C)C [PHA-793887] | 0.008 µM (active) | > 30 µM (inactive) | 0.264 µM (active) | > 30 µM (inactive) | – | > 30 µM (inactive) | > 30 µM (inactive) | > 30 µM (inactive) |
| O=C(NC[C@H](O)CO)c1ccncc1Nc1ccc(I)cc1F [PIMASERTIB] | > 30 µM (inactive) | > 30 µM (inactive) | > 30 µM (inactive) | > 30 µM (inactive) | – | > 30 µM (inactive) | > 30 µM (inactive) | > 30 µM (inactive) |
| C=CC(=O)Nc1cccc(Nc2nc(Nc3ccc(N4CCN(C(C)=O)CC4)cc3OC)ncc2C(F)(F)F)c1 [ROCILETINIB] | > 30 µM (inactive) | > 30 µM (inactive) | > 30 µM (inactive) | > 30 µM (inactive) | – | > 30 µM (inactive) | > 30 µM (inactive) | > 30 µM (inactive) |
| O=C(O)c1ccc2c(c1)nc(Nc1cccc(Cl)c1)c1ccncc12 [SILMITASERTIB] | 7.12 µM (active) | > 30 µM (inactive) | > 30 µM (inactive) | > 30 µM (inactive) | – | > 30 µM (inactive) | 2.38 µM (active) | > 30 µM (inactive) |
| C=CCN(/C=C1/C(=O)O[C@H](COC)[C@@]2(C)C1=C(O)C(=O)C1=C2[C@H](OC(C)=O)C[C@]2(C)C(=O)CC[C@@H]12)CC=C [SONOLISIB] | > 30 µM (inactive) | > 30 µM (inactive) | > 30 µM (inactive) | > 30 µM (inactive) | – | > 30 µM (inactive) | > 30 µM (inactive) | > 30 µM (inactive) |
| CN1CCN(c2nc(C3=C(c4c[nH]c5ccccc45)C(=O)NC3=O)c3ccccc3n2)CC1 [SOTRASTAURIN] | > 30 µM (inactive) | > 30 µM (inactive) | > 30 µM (inactive) | > 30 µM (inactive) | – | > 30 µM (inactive) | > 30 µM (inactive) | > 30 µM (inactive) |
| CC(C)(O)CC(=O)NCCn1ccc2ncnc(Nc3ccc(Oc4cccc(C(F)(F)F)c4)c(Cl)c3)c21 [TAK-285] | > 30 µM (inactive) | > 30 µM (inactive) | > 30 µM (inactive) | > 30 µM (inactive) | – | > 30 µM (inactive) | > 30 µM (inactive) | > 30 µM (inactive) |
| CNC(=O)c1cc(COc2nnc(Nc3ccc(Cl)cc3)c3ccoc23)ccn1 [TELATINIB] | > 30 µM (inactive) | > 30 µM (inactive) | > 30 µM (inactive) | > 30 µM (inactive) | – | > 30 µM (inactive) | > 30 µM (inactive) | > 30 µM (inactive) |
